This test deals with T1, EP4 receptor (Mus musculus, UniProt P32240).
T1 construct: expressed in transfected cells; host or cells: CHO cells (membrane fraction)
Put plainly: Receptor-binding experiment using CHO cell membranes expressing prostanoid receptor sub-types (3H-PGE2 displacement). Particulars: membrane fraction of CHO cells expressing murine EP4; 3H-PGE2 2.5 nM; Ki=IC50/(1+([C]/Kd)). As for the experimental part:
(i) Experiment for Receptor-Binding Using Cells which Express Prostanoid Receptor Sub-Types
According to the method of Sugimoto et al. (J. Biol. Chem., 267, 6463–6466 ([…])), CHO cells which expressed prostanoid receptor sub-types (murine EP1, EP2, EP3α, and EP4 respectively) were prepared and used as membrane authentic samples.
A reaction solution (200 μL) containing the prepared membrane fraction (0.5 mg/ml) and ^3H-PGE2 was incubated at room temperature for an hour. The reaction was terminated with ice cold buffer (3 mL), and the reaction mixture was suction filtrated under reduced pressure through a glass filter (GF/B), on which the binding ^3H-PGE2 was trapped, and the binding radioactivity was measured by means of a liquid scintillator.
The Kd value was obtained from the Scatchard plots (Ann. N.Y. Acad. Sci., 51, 660 (1949)). Non-specific binding was obtained as the binding in the presence of an excess amount (2.5 μM) of unlabelled PGE2. Measurement of the binding inhibition for ^3H-PGE2 with the compounds of the invention was performed by adding ^3H-PGE2 (2.5 nM) and a series of concentrations of the compounds of the invention. In this reaction, the following buffer was used in all cases. • Buffer: 10 mM potassium phosphate (pH6.0), 1 mM EDTA, 10 mM MgCl2 and 0.1M NaCl.
Dissociation constant Ki (μM) of each compounds was calculated from the following equation. […]

By Ki is commonly meant a dissociation constant, usually derived from enzyme kinetics or from competition with a known ligand. A higher Ki goes with lower affinity.

T1 sequence (P32240 whole entry): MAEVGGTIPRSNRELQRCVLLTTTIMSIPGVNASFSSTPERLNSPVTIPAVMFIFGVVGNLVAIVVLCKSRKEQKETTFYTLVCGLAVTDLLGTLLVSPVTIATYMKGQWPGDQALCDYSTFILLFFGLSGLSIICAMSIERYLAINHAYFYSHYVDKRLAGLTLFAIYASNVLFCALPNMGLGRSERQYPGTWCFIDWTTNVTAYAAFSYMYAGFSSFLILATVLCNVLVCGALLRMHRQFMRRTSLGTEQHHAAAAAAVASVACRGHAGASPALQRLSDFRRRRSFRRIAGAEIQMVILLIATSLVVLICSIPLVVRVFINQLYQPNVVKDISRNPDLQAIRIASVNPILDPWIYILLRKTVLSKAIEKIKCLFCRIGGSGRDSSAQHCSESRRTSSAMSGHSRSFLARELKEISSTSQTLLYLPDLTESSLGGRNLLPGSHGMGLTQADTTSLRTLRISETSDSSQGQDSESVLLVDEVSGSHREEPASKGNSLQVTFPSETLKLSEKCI

Molecule `Cc1cc(C)cc(C[C@H](O)/C=C/[C@H]2CCC(=O)N2CCc2ccc(C(=O)O)cc2)c1` [Example 5, (15α,13E)-1,6-(1,4-interphenylene)-9-oxo-15-hydroxy-16-(3,5-dimethylphenyl)-2,3,4,5,17,18,19,20-octanol-8-azaprost-13-enoic acid] registered a Ki of 6.4 nM.

The values are drawn from patent US7256211B1, “8-azaprostaglandin derivatives and medical use thereof” (ONO Pharmaceutical Co., Ltd., priority 2003, dated 2007).
